{
  "source": "patent US20040259942A1",
  "about": "“Modulation of stat activity” (priority 2001, published 2004)",
  "type_in_all_cases": "cell-based, human",
  "key": {"BR293 cells": {"test_system": "BR293 cells", "assay": "DAPI staining, fluorescence microscopy (apoptosis)", "conditions": "full medium (10% FCS); 24 h", "protocol": "OdDHL blocks BC cell oroliferation and induces apoptosis. BR293 cells were grown in full medium (10% FCS) in the absence or presence of OdDHL or the control OHHL. After 24 h, cell were harvested, stained with DAPI and examined by fluorescence microscopy."}, "STAT3": {"test_system": "STAT3", "assay": "Serum-induced STAT3 tyrosine phosphorylation (immunoblot)", "protocol": "(§1) For immunoprecipitation and immunoblotting experiments, cells were grown to confluence in 10 cm dishes and maintained in full medium or starved in serum-free medium overnight before the application of appropriate stimuli. Lysates were prepared in TBSN buffer (50 mM Tris-HCl pH7.5, 150 mM NaCl, 1 mM EDTA, 1% NP-40) supplemented with protease inhibitors (1 mM Na3 VO4, 10 mM Na4P2O7, 10 mM NaF, 5 mM EGTA, 10 mM Benzamidine, 0.2 mM PMSF and 1 μg/ml each of leupeptin, aprotinin, pepstatin). Lysates were cleared by centrifugation at 16,000×g for 10 minutes and used directly for immunoprecipitations or stored at −20° C. for further use.\nEqual amounts of lysates were incubated with the appropriate antibody for 2 hours at 4° C.\n(§2) Immune complexes were then allowed to bind to protein A-Sepharose beads for 1 hour at 4° C. and collected by centrifugation. Immunoprecipitates were washed three times in 100 mM Tris-HC1 pH 7.5, 100 nM NaCl, 1 mM EDTA, 0.1 mM PMSF, 0.5% NP-40. Thereafter, samples were taken up in sodium dodecyl sulphate (SDS) loading buffer and boiled for 5 min.\nSamples were separated by electrophoresis through 6% polyacrylamide-SDS gels. Proteins were then transferred to polyvinylidene difluoride (PVDF) membranes with a semi-dry electroblotting apparatus. The membranes were incubated with appropriate primary antibodies at room temperature for 1 hour or 4° C. overnight according to suppliers' instructions, washed and stained with horseradish peroxidase-coupled secondary antibodies. The membranes were developed with an enhanced chemiluminescence kit (Amersham).\nas §1, with “Na3VO4,” for “Na3 VO4,”, “aprotinin and” for “aprotinin,”, “use. AG490 was purchased from Sigma; PD153035 was provided by Glaxo-Smith-Kline and PD168393 was purchased from Calbiochem.” for “use.”\nas §2, with “Equal amounts of lysates were incubated with the appropriate antibody for 2 hours at 4° C. Immune” for “Immune”, “in 10” for “in 100”, “mM Tris-HCl” for “mM Tris-HC1”, “100 mM” for “100 nM”"}, "Akt/PKB": {"test_system": "Akt/PKB", "assay": "Akt/PKB S473 phosphorylation in serum-stimulated cells (P13K survival pathway)", "conditions": "for Akt/PKB phosphorylation in serum-stimulated cells: BR293, MCF-7 and MDA-MB-468 cells, Wortmannin 200 nM, AHLs 100 μM", "protocol": "Cell lysates were then prepared and analysed by Western blotting for Akt/PKB phosphorylation with an antibody specific for Akt/PKB phosphorylated on S473 (p-Akt, upper panel) and subsequently for total Akt/PKB content with an antibody for Akt/PKB (lower panel).\nIn the bottom section of FIG. 21, BR293 cells were serum-starved (lane 1) or starved and stimulated with 10% FCS for 2 hours alone (lane 2) or in the presence of increasing concentrations of OdDHL (lanes 3-6) or 100 μM OHHL (lane 7) or 200 nM Wortmannin (lane 8). Cell lysates were prepared and analysed by Western blotting for Akt/PKB phosphorylation with an antibody specific for Akt/PKB phosphorylated on S473 (upper panel) and subsequently for total Alt/PKB content with an antibody for Akt/PKB (lower panel)."}, "MCF-7 cells": {"test_system": "MCF-7 cells", "assay": "DAPI staining, confocal microscopy (apoptosis)", "conditions": "growing cells treated; 100 μM (FIG. 17)", "protocol": "(§3) OdDHL induces apoptosis of BC cells (a) MCF-7 cells were cultured in full medium alone or in the presence of 1001M OdDHL or 100 μM OHHL. […] Left-hand panels show DAPI, right-hand panels show the corresponding phase contrast and middle panels the image overlays. (b) MDA-MB-468 cells were cultured in full medium alone or in the presence of 100 μM OdDHL or 100 μM OHHL. After 18 hours cells were fixed, stained and examined as in (a). (c) BR293, MCF-7 and MDA-MD-468 cells were cultured in full medium alone (lanes 1, 3, 5) or in the presence of 100 μM OdDHL (lanes 2, 4, 6) or 400 μM etoposide (lane 7). After 18 hours cells were lysed and analysed for PARP cleavage by Western blotting with an anti-PARP antibody. Full length PARP is labelled and the lower arrow indicates the major caspase cleavage fragment."}, "MDA-MB-468 cells": {"test_system": "MDA-MB-468 cells", "assay": "DAPI staining, confocal microscopy (apoptosis)", "conditions": "growing cells treated; 100 μM (FIG. 17)", "protocol": "as §3, with “After 18 hours cells were fixed, stained and examined as in (a).” left out"}},
  "data": [
    {"smiles": "CCCC(=O)CC(=O)N[C@H]1CCOC1=O", "note": "[OHHL, N-(3-oxohexanoyl)-L-homoserine lactone, reference compound]", "values": [
      {"measurement": "nuclear morphology / viability after DAPI staining", "setting": "BR293 cells", "value": "remained viable"},
      {"measurement": "effect on serum-induced STAT3 tyrosine phosphorylation", "setting": "STAT3; BR293 cells, 100 μM", "value": "only a slight effect"},
      {"measurement": "Akt/PKB phosphorylation in serum-stimulated cells", "setting": "Akt/PKB", "value": "had no effect"},
      {"measurement": "nuclear integrity by DAPI staining", "setting": "MCF-7 cells", "value": "unaffected"},
      {"measurement": "nuclear integrity by DAPI staining", "setting": "MDA-MB-468 cells", "value": "unaffected"}
    ]},
    {"smiles": "CCCCCCCCCC(=O)CC(=O)N[C@H]1CCOC1=O", "note": "[OdDHL, N-(3-oxo-dodecanoyl)-L-homoserine lactone]", "values": [
      {"measurement": "nuclear morphology / viability after DAPI staining", "setting": "BR293 cells", "value": "induced DNA condensation and nuclear fragmentation"},
      {"measurement": "STAT3 phosphorylation at sub-inhibitory concentration", "setting": "STAT3; BR293 cells, 50 μM OdDHL", "value": "small increase"},
      {"measurement": "delayed STAT3 phosphorylation in response to serum", "setting": "STAT3; BR293 cells, 100 μM pretreatment (FIG. 18c)", "value": "prevented the delayed STAT3 phosphorylation in response to serum"},
      {"measurement": "serum-induced phosphorylation of STAT3", "setting": "STAT3; BR293 cells, pre-incubation (FIG. 11 upper panel)", "value": "blocked the serum-induced phosphorylation of STAT3"},
      {"measurement": "concentration at which serum-induced STAT3 tyrosine phosphorylation was inhibited", "setting": "STAT3; BR293 cells, pretreatment 15 minutes with increasing concentrations", "value": 100, "unit": "µM"},
      {"measurement": "threshold concentration for inactivation of serum-induced STAT3 phosphorylation", "setting": "STAT3; FIG. 15", "value": "above 50 μM"},
      {"measurement": "Akt/PKB phosphorylation in serum-stimulated cells", "setting": "Akt/PKB", "value": "blocked phosphorylation of Akt/PKB to a similar degree as Wortmannin"},
      {"measurement": "effective concentration for blocking Akt/PKB phosphorylation", "setting": "Akt/PKB; titration in BR293 cells", "value": "above 50 μM"},
      {"measurement": "nuclear integrity by DAPI staining", "setting": "MCF-7 cells", "value": "nuclear disruption"},
      {"measurement": "nuclear integrity by DAPI staining", "setting": "MDA-MB-468 cells", "value": "nuclear disruption"}
    ]}
  ]
}
